Columns and labels:
Test in all cases: relative viability (nuclei count vs DMSO), 5 days (fraction); higher = more cells survive
Palbociclib + OSI-027 = compound: CC(=O)c1c(C)c2cnc(Nc3ccc(N4CCNCC4)cn3)nc2n(C2CCCC2)c1=O [Palbociclib] + COc1cccc2cc(-c3nc([C@H]4CC[C@H](C(=O)O)CC4)n4ncnc(N)c34)[nH]c12 [OSI-027] (partner 0.5 µM)
In short: (§1)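 One day after seeding in 1536-well plates, lung cancer cell lines were dosed by pin tool. Dosing was either single-drug or a fixed anchor-drug dose plus five library-drug doses (not always all listed) in √10 steps. After 5 days, nuclei were stained in one fix-and-stain step and counted on 4× images, and relative viability is the nuclei count of treated wells over that of vehicle wells, given as the median of duplicate plates.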

Palbociclib + Linsitinib = compound: CC(=O)c1c(C)c2cnc(Nc3ccc(N4CCNCC4)cn3)nc2n(C2CCCC2)c1=O [Palbociclib] + C[C@]1(O)C[C@@H](c2nc(-c3ccc4ccc(-c5ccccc5)nc4c3)c3c(N)nccn32)C1 [Linsitinib] (partner 1 µM)
In short: as §1

Palbociclib + Foretinib = compound: CC(=O)c1c(C)c2cnc(Nc3ccc(N4CCNCC4)cn3)nc2n(C2CCCC2)c1=O [Palbociclib] + COc1cc2c(Oc3ccc(NC(=O)C4(C(=O)Nc5ccc(F)cc5)CC4)cc3F)ccnc2cc1OCCCN1CCOCC1 [Foretinib] (partner 0.25 µM)
In short: as §1

Palbociclib + Alpelisib = compound: CC(=O)c1c(C)c2cnc(Nc3ccc(N4CCNCC4)cn3)nc2n(C2CCCC2)c1=O [Palbociclib] + Cc1nc(NC(=O)N2CCC[C@H]2C(N)=O)sc1-c1ccnc(C(C)(C)C(F)(F)F)c1 [Alpelisib] (partner 2 µM)
In short: as §1

## NCI-H2009
Palbociclib + OSI-027; first compound 0.01 µM
  relative viability: 0.64
Palbociclib + OSI-027; first compound 0.03162 µM
  relative viability: 0.481
Palbociclib + OSI-027; first compound 0.1 µM
  relative viability: 0.331
Palbociclib + OSI-027; first compound 0.3162 µM
  relative viability: 0.297
Palbociclib + OSI-027; first compound 1 µM
  relative viability: 0.194
Palbociclib + Linsitinib; first compound 0.01 µM
  relative viability: 1.18
Palbociclib + Linsitinib; first compound 0.03162 µM
  relative viability: 1.02
Palbociclib + Linsitinib; first compound 0.1 µM
  relative viability: 0.957
Palbociclib + Linsitinib; first compound 0.3162 µM
  relative viability: 0.909
Palbociclib + Linsitinib; first compound 1 µM
  relative viability: 0.494
Palbociclib + Foretinib; first compound 0.01 µM
  relative viability: 1.2
Palbociclib + Foretinib; first compound 0.03162 µM
  relative viability: 1
Palbociclib + Foretinib; first compound 0.1 µM
  relative viability: 0.998
Palbociclib + Foretinib; first compound 0.3162 µM
  relative viability: 0.728
Palbociclib + Foretinib; first compound 1 µM
  relative viability: 0.495
Palbociclib + Alpelisib; first compound 0.01 µM
  relative viability: 1.07
Palbociclib + Alpelisib; first compound 0.03162 µM
  relative viability: 1.06
Palbociclib + Alpelisib; first compound 0.1 µM
  relative viability: 0.925
Palbociclib + Alpelisib; first compound 0.3162 µM
  relative viability: 0.874
Palbociclib + Alpelisib; first compound 1 µM
  relative viability: 0.326

## NCI-H2405
Palbociclib + OSI-027; first compound 0.01 µM
  relative viability: 0.586
Palbociclib + OSI-027; first compound 0.03162 µM
  relative viability: 0.487
Palbociclib + OSI-027; first compound 0.1 µM
  relative viability: 0.492
Palbociclib + OSI-027; first compound 0.3162 µM
  relative viability: 0.483
Palbociclib + OSI-027; first compound 1 µM
  relative viability: 0.396
Palbociclib + Linsitinib; first compound 0.01 µM
  relative viability: 0.992
Palbociclib + Linsitinib; first compound 0.1 µM
  relative viability: 0.49
Palbociclib + Linsitinib; first compound 0.3162 µM
  relative viability: 0.808
Palbociclib + Linsitinib; first compound 1 µM
  relative viability: 0.54
Palbociclib + Foretinib; first compound 0.01 µM
  relative viability: 1.02
Palbociclib + Foretinib; first compound 0.03162 µM
  relative viability: 0.972
Palbociclib + Foretinib; first compound 0.1 µM
  relative viability: 0.884
Palbociclib + Foretinib; first compound 0.3162 µM
  relative viability: 0.822
Palbociclib + Foretinib; first compound 1 µM
  relative viability: 0.675
Palbociclib + Alpelisib; first compound 0.01 µM
  relative viability: 0.792
Palbociclib + Alpelisib; first compound 0.1 µM
  relative viability: 0.441
Palbociclib + Alpelisib; first compound 0.3162 µM
  relative viability: 0.678
Palbociclib + Alpelisib; first compound 1 µM
  relative viability: 0.494

## 201T
Palbociclib + OSI-027; first compound 0.01 µM
  relative viability: 0.763
Palbociclib + OSI-027; first compound 0.03162 µM
  relative viability: 0.676
Palbociclib + OSI-027; first compound 0.1 µM
  relative viability: 0.661
Palbociclib + OSI-027; first compound 0.3162 µM
  relative viability: 0.613
Palbociclib + OSI-027; first compound 1 µM
  relative viability: 0.338
Palbociclib + Linsitinib; first compound 0.01 µM
  relative viability: 1.01
Palbociclib + Linsitinib; first compound 0.03162 µM
  relative viability: 0.97
Palbociclib + Linsitinib; first compound 0.1 µM
  relative viability: 0.901
Palbociclib + Linsitinib; first compound 0.3162 µM
  relative viability: 0.938
Palbociclib + Linsitinib; first compound 1 µM
  relative viability: 0.716
Palbociclib + Foretinib; first compound 0.01 µM
  relative viability: 0.932
Palbociclib + Foretinib; first compound 0.03162 µM
  relative viability: 0.841
Palbociclib + Foretinib; first compound 0.1 µM
  relative viability: 0.72
Palbociclib + Foretinib; first compound 0.3162 µM
  relative viability: 0.77
Palbociclib + Foretinib; first compound 1 µM
  relative viability: 0.419
Palbociclib + Alpelisib; first compound 0.01 µM
  relative viability: 0.995
Palbociclib + Alpelisib; first compound 0.03162 µM
  relative viability: 1.04
Palbociclib + Alpelisib; first compound 0.1 µM
  relative viability: 0.884
Palbociclib + Alpelisib; first compound 0.3162 µM
  relative viability: 0.974
Palbociclib + Alpelisib; first compound 1 µM
  relative viability: 0.728

## PC-14
Palbociclib + OSI-027; first compound 0.01 µM
  relative viability: 0.964
Palbociclib + OSI-027; first compound 0.03162 µM
  relative viability: 0.515
Palbociclib + OSI-027; first compound 0.1 µM
  relative viability: 0.572
Palbociclib + OSI-027; first compound 0.3162 µM
  relative viability: 0.603
Palbociclib + OSI-027; first compound 1 µM
  relative viability: 0.362
Palbociclib + Linsitinib; first compound 0.01 µM
  relative viability: 1.04
Palbociclib + Linsitinib; first compound 0.03162 µM
  relative viability: 0.847
Palbociclib + Linsitinib; first compound 0.1 µM
  relative viability: 0.869
Palbociclib + Linsitinib; first compound 0.3162 µM
  relative viability: 0.802
Palbociclib + Linsitinib; first compound 1 µM
  relative viability: 0.689
Palbociclib + Foretinib; first compound 0.01 µM
  relative viability: 0.944
Palbociclib + Foretinib; first compound 0.03162 µM
  relative viability: 0.865
Palbociclib + Foretinib; first compound 0.1 µM
  relative viability: 0.819
Palbociclib + Foretinib; first compound 0.3162 µM
  relative viability: 0.868
Palbociclib + Foretinib; first compound 1 µM
  relative viability: 0.733
Palbociclib + Alpelisib; first compound 0.01 µM
  relative viability: 1.02
Palbociclib + Alpelisib; first compound 0.03162 µM
  relative viability: 0.936
Palbociclib + Alpelisib; first compound 0.1 µM
  relative viability: 0.782
Palbociclib + Alpelisib; first compound 0.3162 µM
  relative viability: 0.762
Palbociclib + Alpelisib; first compound 1 µM
  relative viability: 0.671

## NCI-H322M
Palbociclib + OSI-027; first compound 0.01 µM
  relative viability: 0.553
Palbociclib + OSI-027; first compound 0.03162 µM
  relative viability: 0.499
Palbociclib + OSI-027; first compound 0.1 µM
  relative viability: 0.385
Palbociclib + OSI-027; first compound 0.3162 µM
  relative viability: 0.435
Palbociclib + OSI-027; first compound 1 µM
  relative viability: 0.446
Palbociclib + Linsitinib; first compound 0.01 µM
  relative viability: 0.892
Palbociclib + Linsitinib; first compound 0.03162 µM
  relative viability: 0.836
Palbociclib + Linsitinib; first compound 0.1 µM
  relative viability: 0.718
Palbociclib + Linsitinib; first compound 0.3162 µM
  relative viability: 0.78
Palbociclib + Linsitinib; first compound 1 µM
  relative viability: 0.638
Palbociclib + Foretinib; first compound 0.01 µM
  relative viability: 0.977
Palbociclib + Foretinib; first compound 0.03162 µM
  relative viability: 0.776
Palbociclib + Foretinib; first compound 0.1 µM
  relative viability: 0.616
Palbociclib + Foretinib; first compound 0.3162 µM
  relative viability: 0.641
Palbociclib + Foretinib; first compound 1 µM
  relative viability: 0.414
Palbociclib + Alpelisib; first compound 0.01 µM
  relative viability: 0.805
Palbociclib + Alpelisib; first compound 0.03162 µM
  relative viability: 0.895
Palbociclib + Alpelisib; first compound 0.1 µM
  relative viability: 0.689
Palbociclib + Alpelisib; first compound 0.3162 µM
  relative viability: 0.676
Palbociclib + Alpelisib; first compound 1 µM
  relative viability: 0.496

## HOP-62
Palbociclib + OSI-027; first compound 0.01 µM
  relative viability: 0.793
Palbociclib + OSI-027; first compound 0.1 µM
  relative viability: 0.697
Palbociclib + OSI-027; first compound 0.3162 µM
  relative viability: 0.624
Palbociclib + OSI-027; first compound 1 µM
  relative viability: 0.446
Palbociclib + Linsitinib; first compound 0.01 µM
  relative viability: 0.995
Palbociclib + Linsitinib; first compound 0.1 µM
  relative viability: 1.01
Palbociclib + Linsitinib; first compound 0.3162 µM
  relative viability: 0.908
Palbociclib + Linsitinib; first compound 1 µM
  relative viability: 0.692
Palbociclib + Foretinib; first compound 0.01 µM
  relative viability: 0.881
Palbociclib + Foretinib; first compound 0.1 µM
  relative viability: 1.02
Palbociclib + Foretinib; first compound 0.3162 µM
  relative viability: 0.958
Palbociclib + Foretinib; first compound 1 µM
  relative viability: 0.735
Palbociclib + Alpelisib; first compound 0.01 µM
  relative viability: 0.851
Palbociclib + Alpelisib; first compound 0.1 µM
  relative viability: 0.797
Palbociclib + Alpelisib; first compound 0.3162 µM
  relative viability: 0.831
Palbociclib + Alpelisib; first compound 1 µM
  relative viability: 0.648

## NCI-H1755
Palbociclib + OSI-027; first compound 0.01 µM
  relative viability: 0.677
Palbociclib + OSI-027; first compound 0.03162 µM
  relative viability: 0.496
Palbociclib + OSI-027; first compound 0.1 µM
  relative viability: 0.555
Palbociclib + OSI-027; first compound 0.3162 µM
  relative viability: 0.633
Palbociclib + OSI-027; first compound 1 µM
  relative viability: 0.391
Palbociclib + Linsitinib; first compound 0.01 µM
  relative viability: 1.01
Palbociclib + Linsitinib; first compound 0.03162 µM
  relative viability: 0.987
Palbociclib + Linsitinib; first compound 0.1 µM
  relative viability: 0.873
Palbociclib + Linsitinib; first compound 0.3162 µM
  relative viability: 0.814
Palbociclib + Linsitinib; first compound 1 µM
  relative viability: 0.711
Palbociclib + Foretinib; first compound 0.01 µM
  relative viability: 0.928
Palbociclib + Foretinib; first compound 0.03162 µM
  relative viability: 0.893
Palbociclib + Foretinib; first compound 0.1 µM
  relative viability: 0.819
Palbociclib + Foretinib; first compound 0.3162 µM
  relative viability: 0.801
Palbociclib + Foretinib; first compound 1 µM
  relative viability: 0.578
Palbociclib + Alpelisib; first compound 0.01 µM
  relative viability: 0.949
Palbociclib + Alpelisib; first compound 0.03162 µM
  relative viability: 0.855
Palbociclib + Alpelisib; first compound 0.1 µM
  relative viability: 0.802
Palbociclib + Alpelisib; first compound 0.3162 µM
  relative viability: 0.766
Palbociclib + Alpelisib; first compound 1 µM
  relative viability: 0.575

## LK-2
Palbociclib + OSI-027; first compound 0.01 µM
  relative viability: 0.208
Palbociclib + OSI-027; first compound 0.1 µM
  relative viability: 0.182
Palbociclib + OSI-027; first compound 0.3162 µM
  relative viability: 0.212
Palbociclib + OSI-027; first compound 1 µM
  relative viability: 0.162
Palbociclib + Linsitinib; first compound 0.01 µM
  relative viability: 0.521
Palbociclib + Linsitinib; first compound 0.03162 µM
  relative viability: 0.486
Palbociclib + Linsitinib; first compound 0.1 µM
  relative viability: 0.468
Palbociclib + Linsitinib; first compound 0.3162 µM
  relative viability: 0.434
Palbociclib + Linsitinib; first compound 1 µM
  relative viability: 0.608
Palbociclib + Foretinib; first compound 0.01 µM
  relative viability: 1.12
Palbociclib + Foretinib; first compound 0.1 µM
  relative viability: 1.18
Palbociclib + Foretinib; first compound 0.3162 µM
  relative viability: 1.27
Palbociclib + Foretinib; first compound 1 µM
  relative viability: 1.05
Palbociclib + Alpelisib; first compound 0.01 µM
  relative viability: 1.12
Palbociclib + Alpelisib; first compound 0.1 µM
  relative viability: 0.75
Palbociclib + Alpelisib; first compound 0.3162 µM
  relative viability: 1.15
Palbociclib + Alpelisib; first compound 1 µM
  relative viability: 1.3
